Consider 58 compounds from the supplement of paper PMC6206229.

≈ marks a conversion by molar mass, not a printed value.

The test system of test [1] is Staphylococcus aureus ATCC 29213 (MSSA). The test can be described thus: minimum inhibitory concentration; extreme values may be limits of the assay. An outline of the steps: (§1)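 Methicillin-susceptible and methicillin-resistant Staphylococcus aureus were assessed by broth microdilution with a resazurin read-out, compounds spanning 0 to 100 µM and incubated for 24 h at 37°C before 30 µl of 0.015% resazurin was added for 2–4 h. For the minimum inhibitory concentration, the lowest concentration whose well stayed blue rather than pink was recorded.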

Test [2] concerns Staphylococcus aureus ATCC 700699 (MRSA). The test is described as above. The essentials:
as §1

In the case of `COc1ccc(S(=O)(=O)Nc2ccc(CN3CCN(C(=O)c4cccc(C#N)c4)CC3)cc2)cc1`, the minimum inhibitory concentration in test [1] and in test [2] was over 50 µM in each case.
With `CCCn1c(NC(=O)c2ccc3ccccc3n2)nc2ccccc21`, the minimum inhibitory concentration in test [1] and in test [2] was over 50 µM in each case.
Regarding `CNC(=O)CNc1nc(-c2ccccn2)nc2scc(-c3ccccc3)c12`, the minimum inhibitory concentration in test [1] and in test [2] was over 50 µM in each case.
Turning to `Cc1ccc(-c2nc(CN(Cc3ccccn3)C(C)C)cs2)o1`, the minimum inhibitory concentration in test [1] and in test [2] was over 50 µM throughout.
Consider `FC(F)(F)c1nnc2ccc(Cl)nn12`, for which the minimum inhibitory concentration in test [1] and in test [2] was over 50 µM throughout.
As for `CC(=O)Oc1ccccc1C(=O)Nc1ncc([N+](=O)[O-])s1`, the minimum inhibitory concentration in test [1] and in test [2] was over 50 µM throughout.
As to `CC(C)(C)[C@H]1CC[C@H](CC2=C(O)C(=O)c3ccccc3C2=O)CC1`, the minimum inhibitory concentration in test [1] and in test [2] was over 50 µM each time.
Take `Cc1cc(C(=O)Nc2cnn(Cc3ccc(Cl)cc3Cl)c2)no1`: the minimum inhibitory concentration in test [1] and in test [2] was over 50 µM each time.
As for `Cn1ccnc1CNCCS(=O)(=O)c1cccc(Nc2ccc(-c3cccc(F)c3)cn2)c1`, the minimum inhibitory concentration in test [1] and in test [2] was over 50 µM in each case.
In the case of `CC(C)(C)C(O)C(Oc1ccc(-c2ccccc2)cc1)n1cncn1` (stereo unspecified), the minimum inhibitory concentration in test [1] and in test [2] was over 50 µM each time.
Consider `CCOc1ccccc1NC(C)C(=O)Nc1cc(C(F)(F)F)ccc1N1CCOCC1` (stereo unspecified), for which the minimum inhibitory concentration in test [1] and in test [2] was over 50 µM throughout.
As for `COC(=O)Nc1nc2cc(C(=O)c3ccccc3)ccc2[nH]1`, the minimum inhibitory concentration in test [1] and in test [2] was over 50 µM each time.
Turning to `Cc1nn(C(=O)Nc2cccc(C(F)(F)F)c2)c(C)c1Sc1ncccn1`, the minimum inhibitory concentration in test [1] and in test [2] was over 50 µM each time.
With `CCCn1nnc(NC(=O)COc2ccc(C3CCCCC3)cc2)n1`, the minimum inhibitory concentration in test [1] and in test [2] was over 50 µM each time.
For `N#Cc1ccc(-c2cnc(N)c(-c3ccc(C(N)=O)cc3)n2)cc1`, the minimum inhibitory concentration in test [1] and in test [2] was over 50 µM throughout.
For `CC(C)(C)CN1C(=O)C(c2ccccc2)(c2ccccc2)N=C1N`, the minimum inhibitory concentration in test [1] and in test [2] was over 50 µM throughout.
Turning to `COc1ccc(CN2CCOc3ccc(C(C)(O)CN(C)C)cc3C2)cc1C` (stereo unspecified), the minimum inhibitory concentration in test [1] and in test [2] was over 50 µM in each case.
Take `COc1ccc(-c2onc(C(F)(F)F)c2-c2ccc(Cl)cc2)c(O)c1`: the minimum inhibitory concentration in test [1] and in test [2] was over 50 µM each time.
As for `c1ccc2c(c1)CN(CC1CC1)CC1(CCN(Cc3c[nH]c4cnccc34)CC1)O2`, the minimum inhibitory concentration in test [1] and in test [2] was 50 µM (≈ 20.1 µg/mL) throughout.
As to `Nc1nc(N)c2c3c(sc2n1)CN(Cc1ccccc1)CC3`, the minimum inhibitory concentration in test [1] and in test [2] was over 50 µM each time.
`Cc1cc(C)n2nc(C(=O)Nc3cc(C(F)(F)F)ccc3N3CCOCC3)nc2n1`: the minimum inhibitory concentration in test [1] and in test [2] was over 50 µM in each case.
Consider `O=C(C1CCN(c2nnnn2-c2ccccc2)CC1)N1CCc2ccccc2C1`, for which the minimum inhibitory concentration in test [1] and in test [2] was over 50 µM throughout.
Regarding `Brc1c(-c2ccc3c(c2)OCO3)nc2ncccn12`, the minimum inhibitory concentration in test [1] and in test [2] was over 50 µM in each case.
For `CC(C)=CCC/C(C)=C/CNCCNC1C2CC3CC(C2)CC1C3` (stereo unspecified), the minimum inhibitory concentration in test [1] and in test [2] was 50 µM (≈ 16.5 µg/mL) in each case.
Consider `CCNC(=O)C(C)Nc1nc(-c2cccnc2)nc2sc(C)c(C)c12` (stereo unspecified), for which the minimum inhibitory concentration in test [1] and in test [2] was over 50 µM each time.
Consider `CC1(C)Cc2c(c(N3CCOCC3)nc3snc(Br)c23)CO1`, for which the minimum inhibitory concentration in test [1] and in test [2] was over 50 µM throughout.
For `O=C(Nc1c(O)cccc1-c1nc2c(C(=O)O)cccc2o1)c1cc(-c2ccccc2)on1`, the minimum inhibitory concentration in test [1] and in test [2] was over 50 µM in each case.
`c1ccc(C[C@@H]2CN(c3nccc(Oc4ccc(-n5ccnc5)cc4)n3)CCN2)cc1`: the minimum inhibitory concentration in test [1] and in test [2] was over 50 µM in each case.
For `Cc1cc(NCC(C)C)c2[nH]nc(-c3ccccc3)c2n1`, the minimum inhibitory concentration in test [1] and in test [2] was over 50 µM each time.
For the compound `COc1ccc(Nc2ccccc2NC(=O)c2ccc(O)nc2)cc1`, the minimum inhibitory concentration in test [1] and in test [2] was over 50 µM throughout.
Turning to `Nc1ncnc2c1c(Cc1cccc3ccccc13)nn2CC1CCNCC1`, the minimum inhibitory concentration in test [1] and in test [2] was over 50 µM throughout.
In the case of `O=C(c1ccco1)N(CCCn1ccnc1)c1nc2c(Cl)cccc2s1`, the minimum inhibitory concentration in test [1] and in test [2] was over 50 µM throughout.
In the case of `COc1nc2ccc(Br)cc2cc1[C@@H](c1ccccc1)[C@@](O)(CCN(C)C)c1cccc2ccccc12`, the minimum inhibitory concentration in test [1] and in test [2] was over 50 µM each time.
With `CC(C)(C)n1nc(Cc2cccc3ccccc23)c2c(N)ncnc21`, the minimum inhibitory concentration in test [1] and in test [2] was over 50 µM in each case.
As for `Nc1ncnc2c1ncn2C[C@@H](O)[C@@H](O)C(=O)O`, the minimum inhibitory concentration in test [1] and in test [2] was over 50 µM each time.
Regarding `CC(C)(C)OC(=O)N1CCC(Cn2nc(-c3cnc4ccccc4c3)c3c(N)ncnc32)CC1`, the minimum inhibitory concentration in test [1] and in test [2] was over 50 µM in each case.
For the compound `C[C@@H]1[C@H](O)[C@@H](C)/C=C/C=C/C=C/C=C/C=C/C=C/C=C/[C@H](O[C@@H]2O[C@H](C)[C@@H](O)[C@H](N)[C@@H]2O)C[C@@H]2O[C@](O)(C[C@@H](O)C[C@@H](O)[C@H](O)CC[C@@H](O)C[C@@H](O)CC(=O)O[C@H]1C)C[C@H](O)[C@H]2C(=O)O`, the minimum inhibitory concentration in test [1] and in test [2] was 50 µM (≈ 46.2 µg/mL) each time.
As for `CC[C@@H](CO)NCCN[C@@H](CC)CO`, the minimum inhibitory concentration in test [1] and in test [2] was over 50 µM in each case.
As to `C[C@]1(COc2ccc(N3CCC(Oc4ccc(OC(F)(F)F)cc4)CC3)cc2)Cn2cc([N+](=O)[O-])nc2O1`, the minimum inhibitory concentration in test [1] and in test [2] was over 50 µM each time.
Regarding `O=C(NC1CC1)c1ccc(N2CCOc3ccc(Cl)cc32)s1`, the minimum inhibitory concentration in test [1] and in test [2] was over 50 µM throughout.
Take `FC(F)(F)c1cc(NCCc2ccccc2)nc(-c2ccccn2)n1`: the minimum inhibitory concentration in test [1] and in test [2] was over 50 µM throughout.
As to `COc1cccc2c(C)nc(N=C(N)N)nc12`, the minimum inhibitory concentration in test [1] and in test [2] was over 50 µM each time.
Regarding `Cc1nn(Cc2ccccc2)c(Cl)c1C(=O)NC1CCCCCC1`, the minimum inhibitory concentration in test [1] and in test [2] was over 50 µM each time.
Consider `CC(C)(C)OC(=O)N1CCN(c2cc(-c3ccc(Oc4ccccc4)cc3)n[nH]2)CC1`, for which the minimum inhibitory concentration in test [1] and in test [2] was over 50 µM each time.
In the case of `Cc1nc2ccccn2c1C(=O)NCc1ccc(Cl)cc1`, the minimum inhibitory concentration in test [1] and in test [2] was over 50 µM each time.
Take `CCC(=O)Nc1ccccc1C(=O)Nc1ccccn1`: the minimum inhibitory concentration in test [1] and in test [2] was over 50 µM in each case.
Regarding `COc1ccc(C2CC(c3cccs3)=NN2C(=O)c2ccco2)cc1OC` (stereo unspecified), the minimum inhibitory concentration in test [1] and in test [2] was over 50 µM in each case.
Consider `c1cc(C2=NCCN2)cc(-c2cc(-c3ccc(C4=NCCN4)cc3)no2)c1`, for which the minimum inhibitory concentration in test [1] and in test [2] was over 50 µM in each case.
With `CCC(Sc1nc2ccccc2o1)C(=O)Nc1nnc(C)s1` (stereo unspecified), the minimum inhibitory concentration in test [1] and in test [2] was 50 µM (≈ 16.7 µg/mL) in each case.
In the case of `COc1ccc(-c2cc(NC(=O)c3ccc(F)cc3Cl)ccc2OC)cc1`, the minimum inhibitory concentration in test [1] and in test [2] was over 50 µM each time.
For `Clc1ccc(-n2cc(COc3ccnc4ccccc34)nn2)cc1`, the minimum inhibitory concentration in test [1] and in test [2] was over 50 µM each time.
In the case of `O[C@@H](c1cc(C(F)(F)F)nc2c(C(F)(F)F)cccc12)[C@H]1CCCCN1`, the figures for the minimum inhibitory concentration in test [1] and in test [2] were 50 µM (≈ 18.9 µg/mL) and 25 µM (≈ 9.46 µg/mL), respectively.
For `CCc1nn(C)c(C(=O)NCc2ccc(Oc3ccc(C)cc3)cc2)c1Cl`, in that order: over 50 µM and over 50 µM.
For `CO/N=C(\C(=O)OC)c1ccccc1CO/N=C(\C)c1cccc(C(F)(F)F)c1`, in that order: over 50 µM and over 50 µM.
For `CC(C)c1ncc(-c2ccncc2)c([C@H]2CC[C@H](CNC(=O)c3cccnc3)CC2)n1`, in that order: over 50 µM and over 50 µM.
As to `COc1ccccc1CNC(=O)c1cc(C2CC2)nc2c1cnn2C(C)C`, the minimum inhibitory concentration in test [1] and in test [2] was over 50 µM each time.
In the case of `Nc1ncnc2c1c(-c1cnc3ccccc3c1)nn2CC1CCNCC1`, the minimum inhibitory concentration in test [1] and in test [2] was over 50 µM each time.
With `O=C1Nc2ccc(Br)cc2C12NCCc1c2[nH]c2ccccc12` (stereo unspecified), the minimum inhibitory concentration in test [1] and in test [2] was over 50 µM each time.
